As a reminder, the MIC is the smallest concentration in the dilution series that meets the test's criterion for growth inhibition.

The first data set deals with Mycobacterium tuberculosis. The experiment in a line: Antimycobacterial activity against multidrug-resistant Mycobacterium tuberculosis harbouring Beijing genotype with combination of mutations of Ser 53-Leu 315 and Ser-Thr in rpoB and katG genes after 10 days by micro broth dilution method. The data set is classed as functional. (Broth dilution looks for growth in wells or tubes with falling amounts of substance.)
For `CC(C)[C@H](Nc1nc(N)nc2[nH]cnc12)C(=O)O`, the minimal inhibitory concentration (MIC) was 6.25 µg/mL.
Still for that read-out and setting: next, `COC(=O)[C@H](CCSC)NC(=O)CNc1nc(NC(C)=O)nc2[nH]cnc12`: 3.1 µg/mL; `COC(=O)[C@H](Cc1ccccc1)NC(=O)CNc1ncnc2[nH]cnc12`: 1.5 µg/mL.
The same measure, in the same setting: to `CC1COc2c(N3CCN(C)CC3)c(F)cc3c(=O)c(C(=O)O)cn1c23` (configuration not stated) [OFLOXACIN] belongs 0.1 µg/mL.
The same measure, in the same setting: next, `Nc1nc(NCC(=O)N[C@@H](CCC(=O)O)C(=O)O)c2nc[nH]c2n1`: 0.7 µg/mL; `COC(=O)CNc1nc(N)nc2[nH]cnc12.Cl.Cl`: 6.25 µg/mL; `CC(=O)Nc1nc(N2CCC[C@H]2C(=O)OC(C)(C)C)c2nc[nH]c2n1`: 6.25 µg/mL.
Consider `CSCC[C@H](NC(=O)CNc1nc(N)nc2[nH]cnc12)C(=O)O.O`, for which the MIC was determined as 3.1 µg/mL.
Take `O.O=C(O)CC[C@H](NC(=O)CNc1ncnc2[nH]cnc12)C(=O)O`: the minimal inhibitory concentration (MIC) turned out to be 0.7 µg/mL.
For `CC(=O)Nc1nc(NCC(=O)O)c2nc[nH]c2n1`, the minimum inhibitory concentration (MIC) worked out at 0.7 µg/mL.

Tested on in a further data set: not listed separately
The data set is described as follows: Selectivity index, ratio of IC50 for human FEH cells to MIC for multidrug-resistant Mycobacterium tuberculosis. In kind it is toxicity, cell-based.
Take `Nc1nc(NCC(=O)N[C@@H](CCC(=O)O)C(=O)O)c2nc[nH]c2n1`: the selectivity ratio was over 25.
For the molecule `O.O=C(O)CC[C@H](NC(=O)CNc1ncnc2[nH]cnc12)C(=O)O`, the selectivity ratio was over 25.

The values are drawn from ChEMBL document CHEMBL3804804, “Synthesis and antimycobacterial activity of N-(2-aminopurin-6-yl) and N-(purin-6-yl) amino acids and dipeptides” (Bioorg Med Chem Lett, 2016).
